Here are results for three molecules from PMC11126973, “Targeting the Plasmodium falciparum UCHL3 ubiquitin hydrolase using chemically constrained peptides” (Proceedings of the National Academy of Sciences of the …, 2024).

Values joined by “and” are separate entries in the source; they are usually repeats but may differ in a detail not shown here. Identical values can stand only once. Bridge positions count the residues as written; N and C are the ends. Square brackets hold non-standard residues; d marks the D form. Peptide text beside a SMILES is read from it.

Usually Kd stands for the constant that tells how readily two partners part at equilibrium. Higher therefore signals weaker binding. The term IC50 denotes the point on the concentration scale where inhibition reaches its midpoint. Lower therefore signals higher potency. By koff is commonly meant the first-order rate constant of dissociation. A low value points to a long-lived complex. A word on the kon: it is the second-order rate constant of association. A lower kon goes with slow association.

In test [1] the target is T1, PfUCHL3 (Plasmodium falciparum, UniProt Q8IKM8).
T1 sequence (Q8IKM8 1-232): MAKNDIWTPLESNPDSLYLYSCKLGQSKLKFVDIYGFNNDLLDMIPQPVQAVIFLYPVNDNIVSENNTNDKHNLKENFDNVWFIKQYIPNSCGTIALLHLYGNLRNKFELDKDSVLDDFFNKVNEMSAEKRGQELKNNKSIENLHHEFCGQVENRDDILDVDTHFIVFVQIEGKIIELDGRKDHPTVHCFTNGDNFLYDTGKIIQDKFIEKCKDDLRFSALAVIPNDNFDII
Nature of the test: biochemical. Format: binding. Also noted: His tag (TEV-cleavable) (cleaved yes); made in house. The settings on record: for Kd: BLI, 25 °C. As for the experimental part:
BLI experiments were performed using a ForteBio Octet Red96 instrument at 25 °C. Measurements were performed in black 96-well plates with a well volume of 200 μL. Biotinylated Avi-tagged PfUCHL3 was prepared in a buffer containing 50 mM Tris-HCl buffer, 200 mM NaCl, 0.5 mM TCEP, pH 7.5, and loaded at 1 μg/mL for 60 s. Peptides were diluted to a 4 μM stock concentration in the same DMSO:water mix in which they were resuspended from their stock powder (approximately 4%). The final dilutions (to 400 nM, 133.3 nM, and 44.4 nM) were performed in the same buffer as for the PfUCHL3. Streptavidin-coated tips were used with a new tip for each measurement, because regeneration with PfUCHL3 attached to the tip was not possible. The association and dissociation times were 300 s. All data analysis was performed with the instrument software.

Test [2] deals with T1, PfUCHL3. Nature of the test: biochemical. Also on record: His tag (TEV-cleavable) (cleaved yes); made in house. The procedure: (§1) DUB assays were performed in triplicate in 384-well plates (Corning) using a CLARIOstar plus plate reader. PfUCHL3, HsUCHL3, or peptide were diluted in reaction buffer (50 mM Tris-HCl buffer, pH 7.5, 150 mM NaCl, 1 mg/mL BSA, 0.1% DMSO, and 1 mM TCEP) to 4× the desired final peptide/protein concentration (to keep DMSO concentration constant in all reactions). Protein and peptide (or 0.1% DMSO (mock)) were mixed 1:1 and incubated for 10 min at room temperature, with each enzyme complex at 2× the desired final concentration. Enzyme:peptide mixture (10 μL) and Ub-AMC (7-amino-4-methylcoumarin, Boston Biochem) (250 nM, 10 μL) were mixed in a 384-well plate. DUB activity was measured by monitoring the increase in AMC fluorescence. The kinetic trace at each concentration of peptide was corrected for background and then the initial rate of reaction was determined. The rate of reaction was plotted against the concentration of peptide to determine the IC50 using the following equation: Y=Vmax^*X/IC50+X,
(§2) where Vmax is the reaction rate in the absence of inhibitor, X is the concentration of the peptide inhibitor, and IC50 is the peptide concentration when the rate was inhibited by the peptide by 50%. The data were fitted using Prism (Graphpad).

In another test the test system is T2, HsUCHL3.
T2 construct: His tag (TEV-cleavable) (cleaved yes); made in house; host or cells: bacterial cells (purified 'as described above')
The experiment in a line: Ub-AMC deubiquitination (DUB) assay, HsUCHL3. The format is biochemical, human. Conditions: peptide 25 μM, HsUCHL3 31.25 pM. The procedure:
as §1, §2

Test [3] addresses T1, PfUCHL3. The experiment in a line: Thermal shift assay (TSA) of PfUCHL3 with peptides. Format: binding. Also on record: His tag (TEV-cleavable) (cleaved yes); made in house; host or cells: bacterial cells (purified 'as described above', C41). The settings on record: peptide 48 pM to 25 μM, PfUCHL3 5 μM. As for the experimental part:
Thermal shift assays were performed using a Bio-Rad CFX Connect qPCR instrument, whereby the unfolding is detected by fluorescence of the hydrophobic dye Sypro Orange that binds to the unfolded state of the protein. The experiments were performed in clear-bottom, half-volume, 96-well plates using final well volumes of 25 μL, PfUCHL3 concentration of 5 μM, peptide concentrations ranging from 47 pM to 25 μM, and Sypro Orange:protein concentration ratio of 1:400. PfUCHL3, Sypro orange, and peptide were diluted to 5x concentration in buffer, 1:2,000 concentration in buffer, and 4% DMSO, respectively, before being mixed in the well to a final 1x concentration in buffer. For the PfUCHL3-only control, the peptide was replaced with 4% DMSO and for the buffer control, the PfUCHL3 was replaced with buffer in the sample mix. The samples were incubated at 20 °C for 2 min before increasing by 0.5 °C every 30 s up to 90 °C. At each temperature, the fluorescence intensity was measured using an excitation wavelength of 471 nm and an emission wavelength of 570 nm. Data analysis was performed using the GraphPad Prism software.

Regarding `CC(C)[C@@H]1NC(=O)[C@H](Cc2ccc(O)cc2)NC(=O)[C@H](Cc2c[nH]cn2)NC(=O)[C@H](Cc2c[nH]c3ccccc23)NC(=O)[C@@H]2CCCN2C(=O)[C@H](Cc2c[nH]c3ccccc23)NC(=O)[C@H](Cc2ccccc2)NC(=O)[C@H]([C@@H](C)O)NC(=O)[C@H]([C@@H](C)O)NC(=O)[C@@H](Cc2c[nH]c3ccccc23)NC(=O)CSC[C@@H](C(=O)O)NC(=O)[C@H](CCC(N)=O)NC1=O` [Peptide 60297] ({CH2CO}-[dW]TTFWPWHYVQC-OH; thioether N-12), the Kd at PfUCHL3 [1] (complex profile fitted to heterogeneous model, the tighter of the two Kd values) is 2 nM and ~2 nM. In addition, the IC50 at PfUCHL3 [2] is 1440 ± 371 nM.
Take `CC[C@H](C)[C@@H]1NC(=O)[C@H](Cc2c[nH]c3ccccc23)NC(=O)[C@H](CC(C)C)NC(=O)[C@H](CCCNC(=N)N)NC(=O)[C@@H](Cc2c[nH]c3ccccc23)NC(=O)CSC[C@@H](C(=O)O)NC(=O)[C@H](CC(=O)O)NC(=O)[C@H](Cc2ccc(O)cc2)NC(=O)[C@H](CCCNC(=N)N)NC(=O)[C@H](CC(N)=O)NC(=O)[C@H](Cc2ccc(O)cc2)NC(=O)[C@H](CCCNC(=N)N)NC(=O)[C@H](CCCNC(=N)N)NC(=O)[C@H](CCC(=O)O)NC(=O)[C@H](CO)NC(=O)[C@H](CC(C)C)NC1=O` [Peptide 60296] ({CH2CO}-[dW]RLWILSERRYNRYDC-OH; thioether N-16): the “inhibitory effect on the human UCHL3 enzyme” value with HsUCHL3 is reported as “Neither 60296 nor 60297 peptides showed any inhibitory effect”. Further, on PfUCHL3 [1], the off-rate constant (koff) stood at 0.0053 ± 6e-05 s⁻¹ and the on-rate (kon) amounted to 569000 ± 16000 M⁻¹ s⁻¹. Moreover, at PfUCHL3 [3], the “dose dependence of PfUCHL3 melting temperature” value is reported as “increase in a dose-dependent manner”.
At PfUCHL3 [1], `CC[C@H](C)[C@@H]1NC(=O)[C@H](Cc2ccc(O)cc2)NC(=O)[C@H](CCCNC(=N)N)NC(=O)[C@H](CCC(N)=O)NC(=O)[C@H](Cc2ccc(O)cc2)NC(=O)[C@H](CC(=O)O)NC(=O)[C@@H](Cc2c[nH]c3ccccc23)NC(=O)CSC[C@@H](C(=O)O)NC(=O)[C@H](Cc2c[nH]c3ccccc23)NC(=O)[C@H](CS)NC(=O)[C@H]([C@@H](C)O)NC(=O)[C@H]([C@@H](C)O)NC(=O)[C@H](CC(C)C)NC(=O)[C@H](CCCNC(=N)N)NC(=O)[C@H](Cc2ccccc2)NC(=O)[C@H](CCCCN)NC1=O` [Peptide 58474] ({CH2CO}-[dW]DYQRYIKFRLTTCWC-OH; thioether N-16) yielded a koff of 0.00174 ± 9e-05 s⁻¹ and an association rate constant (kon) of 17100 ± 900 M⁻¹ s⁻¹. Moreover, the equilibrium dissociation constant (Kd) at PfUCHL3 [1] (1:1 (1-site) model) is 101 ± 7 nM.
